Reference: patent US20130018091A1, “TREATMENT OF ALLODYNIA AND HYPERALGESIA” (priority 2009, published 2013)

Columns and labels:
CF1 mouse = assay: Formalin-induced nociception model in mice (hyperalgesia and inflammation); format: in vivo; conditions: 45.0 mg/kg p.o., n=8/group; for Drug-treated AUC (duration of licking): formalin 1 hour after dosing
Description: An injection of 0.5% formalin is made into the planter region of a CF1 mouse (obtained from Charles River, Inc.) right hind paw. This elicits a distinct biphasic behavioral profile characterized by the mouse licking the affected paw. Immediately following the injection the mouse licks the paw for about 10 minutes. This is phase 1 (acute) and is followed by a brief latent period where there is little behavioral activity. A more prolonged period of about 20 to 30 minutes of paw licking ensues which constitutes phase 2 (inflammatory).
Prior to the administration of the test drug or vehicle each mouse undergoes a 15-minute conditioning period in one of several 6″ tall plexiglass observation tubes (4″ diameter) that are placed in front of a mirror. Following the conditioning period, doses of tonabersat will be administered p.o. and the mouse returned to its home tube. At a time determined to correlate with peak plasma levels (1 hour), formalin will be injected sub-dermally (20 ul; 27 gauge needle) into the plantar surface of the right hind foot. The bevel of the needle is placed facing down toward the skin surface. Following injection of the formalin each animal is observed for the first 2 minutes of each 5 minute epoch for a total of 45 minutes. The cumulative length of licking for each 2 minute time period is measured. An animal receiving the requisite volume of vehicle is alternated with each mouse given the test drug. Animals are euthanized following the conclusion of the experiment. An n of 8 mice per group will be employed in this study.
Area under the curve (AUC) determination is made using the GraphPad Prism Version 3.03. Total AUC is calculated for both the test and control groups for both the acute and inflammatory phases. The AUC for individual animals for each phase is also calculated and converted to percentage of total AUC of control. The average percentages and SEM for both the drug treated and control are calculated and tested for significant difference.

Sprague-Dawley rats [1] = assay: Chronic sciatic nerve ligation model in rats (mechanical allodynia, Von Frey); format: in vivo, rat; conditions: 30.0 mg/kg p.o., n=8/group
Source text: Following a 10-day post-operative period after partial ligation of the sciatic nerve as described by Seltzer et al, each of the operated Sprague-Dawley rats (obtained from Charles River, Inc.) will be tested for the development of consistent, mechanical allodynia (pain response to a non-noxious stimulus). Animals are placed in a bottomless plexiglass box placed on a stainless steel platform with ¼″ holes. After at least a 30-min conditioning period in which rats are allowed to sit quietly in the cages on the platform, a baseline mechanical sensitivity is determined which represents the pre-drug 50% paw withdrawal threshold. […] The 50% threshold for foot withdrawal is determined by using the “Up and Down” step procedure. […] If the pressure of the largest diameter fiber raises the foot without a withdrawal, it is considered as “no response.” and recorded as >300 g on the data sheet.
Following the measurement of the initial predrug responses, the rats will be given an p.o. injection of tonabersat (n=8 rats per dose level). The mechanical threshold will then be assessed at 1, 2, 4, 6, 8, and 24 hrs post-injection to determine the duration of action of the test compound and the TPE in this model of mechanical allodynia. […]
The withdrawal threshold for each animal determined at each time point is computed using the “xoxox” step procedure originally developed by Dixon (1980). […]

Sprague-Dawley rats [2] = conditions: general statement, no dose given; cited from earlier work

Row | SMILES | Drug-treated AUC (duration of licking) (CF1 mouse; Acute Phase, Control AUC 185.8) | % Inhibition of Control (CF1 mouse; Acute Phase, p = >0.05) [%] | Drug-treated AUC (duration of licking) (CF1 mouse; Inflammatory Phase, Control AUC 446.7) | % Inhibition of Control (CF1 mouse; Inflammatory Phase, p = <0.05) [%] | % Control (threshold for foot withdrawal relative to predrug mean) (Sprague-Dawley rats [1]; at time of peak effect 6.0 h, p = <0.05) [%] | Time of peak effect (Sprague-Dawley rats [1]; threshold for foot withdrawal) [h] | Activity in sciatic nerve ligation model (Sprague-Dawley rats [2])
1 | CC(=O)c1ccc2c(c1)[C@H](NC(=O)c1ccc(F)c(Cl)c1)[C@H](O)C(C)(C)O2 [Tonabersat, cis-6-acetyl-4-(S)-(3-chloro-4-fluorobenzoylamino)-3,4-dihydro-2,2-dimethyl-2H-1-benzopyran-3-(S)-ol] | 116.4 | 37.3 | 135.8 | 69.6 | 237.0 | 6.0 | –
2 | NCC1(CC(=O)O)CCCCC1 [gabapentin] | – | – | – | – | – | – | active
3 | CC(C)C[C@H](CN)CC(=O)O [pregabalin] | – | – | – | – | – | – | active
